Structures are written as SMILES.

8 molecules from patent US20260274833A1 (NiKang Therapeutics, Inc., priority 2022, published 2026) can be followed below.

The target in this assay is T1, CDK2 (Homo sapiens, UniProt P24941).
T1 construct: endogenous in cells; host or cells: OVCAR3 cells
The assay can be described thus: Phospho-RB measurement in OVCAR3 cells (HTRF phospho-RB cellular kit). Particulars: inhibition of RB phosphorylation at S807/811 (HTRF, TR-FRET ratio 665/620), 24 h compound treatment, 0.3 to 10,000 nM. It counts as cell-based. The procedure, abridged:
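IC50 came from a four-parameter logistic fit of the DMSO-normalized TR-FRET ratio (665/620 nm). That ratio reflects RB phosphorylation at S807/811, read with an HTRF antibody pair 4 h after adding lysate at room temperature.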

For the molecule `CN1CC2CCC(C1)N2c1nc(-c2cccc(NS(=O)(=O)N3CCc4ccc(C#N)cc43)c2F)c(-c2ccnc(NC3CC4(C3)CS(=O)(=O)C4)n2)s1` [Example 16, 6-cyano-N-(3-(5-(2-((2,2-dioxido-2-thiaspiro[3.3]heptan-6-yl)amino)-pyrimidin-4-yl)-2-(3-methyl-3,8-diazabicyclo[3.2.1]octan-8-yl)thiazol-4-yl)-2-fluorophenyl) indoline-1-sulfonamide], the IC50 worked out at 0.0624 µM.

For `CC1(c2nc(-c3cccc(NS(=O)(=O)N4CCc5ccc(C#N)cc54)c3F)c(-c3ccnc(NC4CC5(C4)CS(=O)(=O)C5)n3)s2)CCOCC1` [Example 5, 6-cyano-N-(3-(5-(2-((2,2-dioxido-2-thiaspiro-[3.3]heptan-6-yl)amino)-pyrimidin-4-yl)-2-(4-methyltetrahydro-2H-pyran-4-yl)thiazol-4-yl)-2-fluorophenyl) indoline-1-sulfonamide], the IC50 was found to be 0.0327 µM.

For `N=S1(=O)CC2(CC(Nc3nccc(-c4sc(C56CC(C5)C6)nc4-c4cccc(NS(=O)(=O)N5CCc6ccccc65)c4F)n3)C2)C1` (centres unmarked) [Example 271, N-(3-(2-(bicyclo [1.1.1]pentan-1-yl)-5-(2-((2-imino-2-oxido-26-thiaspiro[3.3]-heptan-6-yl)-amino)pyrimidin-4-yl)thiazol-4-yl)-2-fluorophenyl) indoline-1-sulfonamide], the IC50 amounted to 8.15 µM.

Consider `CS(=O)(=O)CC12CC(Nc3nccc(-c4sc(C56CC(C5)C6)nc4-c4cccc(NS(=O)(=O)N5CCc6ccc(Cl)cc65)c4F)n3)(C1)C2` [Example 269, N-(3-(2-(bicyclo [1.1.1]pentan-1-yl)-5-(2-((3-((methylsulfonyl)methyl)bicyclo-[1.1.1]pentan-1-yl)amino)pyrimidin-4-yl)thiazol-4-yl)-2-fluorophenyl)-6-chloroindoline-1-sulfonamide], for which the half-inhibitory concentration (IC50) stood at 0.0706 µM.

On to `CC(C)(C)c1nc(-c2cccc(NS(=O)(=O)N3CCN(S(C)(=O)=O)CC3)c2F)c(-c2ccnc(NC3CCN(S(C)(=O)=O)CC3)n2)s1` [Example 93, N-(3-(2-(tert-butyl)-5-(2-((1-(methylsulfonyl)piperidin-4-yl)amino)-pyrimidin-4-yl)thiazol-4-yl)-2-fluorophenyl)-4-(methylsulfonyl)-piperazine-1-sulfonamide], for which the IC50 came to 3.03 µM.

Consider `O=S1(=O)CC2(CC(Nc3nccc(-c4sc(C56CC(C5)C6)nc4-c4cccc(NS(=O)(=O)N5CCc6ccncc65)c4F)n3)C2)C1` [Example 264, N-(3-(2-(bicyclo [1.1.1]pentan-1-yl)-5-(2-((2,2-dioxido-2-thiaspiro[3.3]heptan-6-yl)amino)-pyrimidin-4-yl)thiazol-4-yl)-2-fluorophenyl)-2,3-dihydro-1H-pyrrolo[2,3-c]pyridine-1-sulfonamide], for which the IC50 amounted to 1.83 µM.

`CC(C)(C)c1nc(-c2cccc(NS(=O)(=O)N3CCC(F)(F)C3)c2F)c(-c2ccnc(NC3CC4(C3)CS(=O)(=O)C4)n2)s1` [Example 186, N-(3-(2-(tert-butyl)-5-(2-((2,2-dioxido-2-thiaspiro[3.3]heptan-6-yl)amino)-pyrimidin-4-yl)thiazol-4-yl)-2-fluoro-phenyl)-3,3-difluoropyrrolidine-1-sulfonamide]: the IC50 was 1.18 µM.

For `CN(C)C(=O)c1ccc2c(c1)N(S(=O)(=O)Nc1cccc(-c3nc(C(C)(C)C)sc3-c3ccnc(NC4CCN(S(C)(=O)=O)CC4)n3)c1F)CC2` [Example 152, 1-(N-(3-(2-(tert-butyl)-5-(2-((1-(methyl-sulfonyl)piperidin-4-yl)amino)pyrimidin-4-yl)thiazol-4-yl)-2-fluorophenyl)-sulfamoyl)-N,N-dimethylindoline-6-carboxamide], the half-maximal inhibitory concentration (IC50) came out at 0.397 µM.
